Experimental data reported in patent US9212134B2, “Inhibitors of viral entry into mammalian cells” (priority 2010, dated 2015).
pIC50: −log10 of the molar value. “Also recorded” adds a separate entry of the source.

Legend:
HIV/MLV pseudotype virus = format: cell-based
[1] = tested on: HIV/VSV-G pseudotype virus; assay: organism not typed; format: cell-based, vesicular stomatitis virus; settings: for inhibition at 25 µM: read-out: % inhibition @ 25 μM VSV
[2] = tested on: HIV/HA (H7) pseudotype virus; format: cell-based, influenza virus (H7)
[3] = tested on: HIV/HA (H5) pseudotype virus; assay: organism not typed; format: cell-based, influenza A virus H5N1; settings: for inhibition at 25 µM: A549, read-out: % inhibition @ 25 μM influenza
Influenza H1N1 (PR8) = format: cell-based, influenza virus H1N1 (PR8)
[4] = tested on: cell viability (endogenous cellular GAPDH); assay: Cell viability, AlphaScreen SureFire GAPDH assay; settings: cytotoxicity
Pseudotype ebola virus = assay: microbe, parasite or virus in culture; format: cell-based; settings: Zaire ebolavirus, read-out: % inhibition @ 25 μM EBOV
HIV/HA pseudotype virus = format: cell-based, influenza A virus H5N1
[5] = tested on: Influenza A virus [A/WS/33]; assay: Plaque assay of influenza A virus A/WS/33 on MDCK cells; format: cell-based, influenza A virus A/WS/33 (H1N1); settings: 25-200 nM (FIG. 7)

Row | SMILES | CC50 [4] [µM] | pIC50 [3] | inhibition at 25 µM (Pseudotype ebola virus) [%] | inhibition at 25 µM [1] [%] | inhibition at 25 µM [3] [%] | other results
1 | O=C(CN(c1ccc(Cl)cc1Cl)S(=O)(=O)c1ccccc1)Nc1ccccc1F [Compound 2] |  |  |  |  |  | IC90 (HIV/MLV pseudotype virus): 99 µM; IC90 [1]: > 100 µM; IC90 [2]: > 100 µM; IC90 [3]: 3.9 µM; pIC50 (Influenza H1N1 (PR8)): 5.28
2 | O=C(CN(c1ccc(Cl)cc1Cl)S(=O)(=O)c1ccccc1)Nc1ccccc1F [Compound 6] | > 25 | 5.28 |  |  |  | 
3 | COc1cccc(N(CC(=O)Nc2cc(Cl)cc(Cl)c2)S(=O)(=O)c2ccccc2)c1 [Compound 7] | 31.5 | 4.73 |  |  |  | 
4 | COc1ccc(OC)c(N(CC(=O)Nc2ccc(Cl)cc2)S(=O)(=O)c2ccc(C)cc2)c1 [Compound 8] | > 100 | < 4.00 |  |  |  | 
5 | O=C(CN(c1ccc(Cl)c(Cl)c1)S(=O)(=O)c1ccccc1)Nc1ccccc1 [Compound 9] | 42 | 4.70 |  |  |  | 
6 | O=C(CN(c1ccc(Cl)cc1Cl)S(=O)(=O)c1ccccc1)Nc1ccc(F)cc1 [Compound 10] | 50.5 | 4.60 |  |  |  | 
7 | COc1ccc(N(CC(=O)Nc2ccccc2C)S(=O)(=O)c2ccccc2)cc1 [Compound 11] | > 100 | < 4.00 |  |  |  | 
8 | COc1ccc(N(CC(=O)Nc2ccc(F)cc2)S(=O)(=O)c2ccccc2)cc1 [Compound 12] | > 100 | < 4.00 |  |  |  | 
9 | COc1ccc(N(CC(=O)Nc2c(OC)cccc2OC)S(=O)(=O)c2ccccc2)cc1 [Compound 13] | > 100 | < 4.00 |  |  |  | 
10 | COc1ccccc1N(CC(=O)Nc1cccc(C)c1C)S(=O)(=O)c1ccccc1 [Compound 14] | > 100 | < 4.00 |  |  |  | 
11 | COc1cccc(NC(=O)CN(c2ccc(Cl)cc2C)S(=O)(=O)c2ccc(C)cc2)c1 [Compound 15] | 43.4 | < 4.00 |  |  |  | 
12 | COc1ccc(NC(=O)CN(c2ccc(Cl)cc2)S(=O)(=O)c2ccc(C)cc2)cc1 [Compound 16] | > 100 | < 4.00 |  |  |  | 
13 | Cc1cccc(C)c1NC(=O)CN(c1cccc(Cl)c1)S(=O)(=O)c1ccccc1 [Compound 17] | > 100 | < 4.00 |  |  |  | 
14 | COc1ccc(NC(=O)CN(c2cccc(Cl)c2)S(=O)(=O)c2ccccc2)c(OC)c1 [Compound 18] | > 100 | < 4.00 |  |  |  | 
15 | O=C(CN(c1cccc(Cl)c1)S(=O)(=O)c1ccccc1)Nc1ccccc1Cl [Compound 19] | 90.3 | < 4.00 |  |  |  | 
16 | Cc1cccc(C)c1NC(=O)CN(c1ccccc1Cl)S(=O)(=O)c1ccccc1 [Compound 20] | > 100 | < 4.00 |  |  |  | 
17 | COc1ccc(OC)c(NC(=O)CN(c2ccccc2Cl)S(=O)(=O)c2ccc(C)cc2)c1 [Compound 21] | > 100 | < 4.00 |  |  |  | 
18 | Cc1ccc(S(=O)(=O)N(CC(=O)Nc2cccc(C)c2)c2ccccc2Cl)cc1 [Compound 22] | > 100 | < 4.00 |  |  |  | 
19 | COc1ccc(NC(=O)CN(c2ccccc2Cl)S(=O)(=O)c2ccc(C)cc2)c(OC)c1 [Compound 23] | > 100 | < 4.00 |  |  |  | 
20 | COC(=O)c1ccccc1NC(=O)CN(c1ccc(C)cc1)S(=O)(=O)c1ccc(OC)cc1 [Compound 11978_G07] |  |  | 89 | 29 | 22 | 
21 | CCOc1ccc(N(C(C)C(=O)Nc2cccc(C(F)(F)F)c2)S(C)(=O)=O)cc1 (centres unmarked) [Compound 11982_F11] |  |  | 25 | 73 | 87 | 
22 | COc1cccc(N(CC(=O)Nc2ccc(CSc3ccccc3)cc2)S(C)(=O)=O)c1 [Compound 11997_F05] |  |  | 41 | 51 | 100 | 
23 | Cc1cccc(NC(=O)CN(c2cccc(Cl)c2Cl)S(C)(=O)=O)c1 [Compound 11998_D06] |  |  | 0 | 0 | 88 | 

Row | SMILES | CC50 [4] [µM] | pIC50 [3] | inhibition at 25 µM (Pseudotype ebola virus) [%] | inhibition at 25 µM [1] [%] | inhibition at 25 µM [3] [%] | other results
24 | CS(=O)(=O)N(CC(=O)Nc1ccccc1F)c1cc(C(F)(F)F)ccc1Cl [Compound 12020_E02] |  |  | 43 | 68 | 86 | 
25 | COc1ccc(Cl)cc1NC(=O)CN(c1cccc(Cl)c1Cl)S(C)(=O)=O [Compound 12021_B02] |  |  | 0 | 70 | 87 | 
26 | CCc1ccc(N(CC(=O)Nc2ccc(Oc3ccccc3)cc2)S(C)(=O)=O)cc1 [Compound 12066_B08] |  |  | 31 | 24 | 98 | 
27 | Cc1c(Cl)cccc1NC(=O)CN(c1ccc(I)cc1)S(C)(=O)=O [Compound 12076_B09] |  |  | 48 | 21 | 86 | 
28 | COc1ccccc1NC(=O)CN(c1ccc(Cl)cc1C)S(C)(=O)=O [Compound 12078_B05] |  |  | 42 | 36 | 96 | 
29 | COc1ccc(S(=O)(=O)N(CC(=O)Nc2ccc(F)c(Cl)c2)c2ccccc2)cc1 [Compound 12078_D04] |  |  | 87 | 60 | 40 | 
30 | COc1ccc(S(=O)(=O)N(CC(=O)Nc2ccc(F)cc2F)c2ccc(Cl)cc2)cc1 [Compound 12079_A05] |  |  | 86 | 0 | 19 | 
31 | COc1ccc(Cl)cc1N(CC(=O)Nc1ccc(F)cc1F)S(=O)(=O)c1ccc(C)cc1 [Compound 12096_A08] |  |  | 38 | 42 | 88 | 
32 | CCOc1ccccc1NC(=O)CN(c1cc(Cl)ccc1Cl)S(C)(=O)=O [Compound 12110_D02] |  |  | 0 | 2 | 90 | 
33 | CCc1ccccc1N(CC(=O)Nc1cccc(F)c1)S(C)(=O)=O [Compound 12112_H02] |  |  | 0 | 0 | 86 | 
34 | COc1ccc(S(=O)(=O)N(CC(=O)Nc2cccc3ccccc23)c2ccc(C)cc2)cc1 [Compound 12305_B04] |  |  | 85 | 0 | 47 | 
35 | COc1ccc(S(=O)(=O)N(CC(=O)Nc2cccc3ccccc23)c2ccc(Cl)cc2)cc1 [Compound 12308_B02] |  |  | 96 | 23 | 46 | 
36 | Cc1ccc(N(CC(=O)Nc2ccccc2C(C)C)S(C)(=O)=O)cc1 [Compound 12402_E03] |  |  | 85 | 22 | 47 | 
37 | Cc1ccc(S(=O)(=O)N(CC(=O)Nc2ccccc2C(F)(F)F)c2ccc(F)cc2)cc1 [Compound 12440_F06] |  |  | 93 | 45 | 46 | 
38 | COc1ccc(N(CC(=O)Nc2ccccc2F)S(=O)(=O)c2ccccc2)cc1Cl [Compound 12441_B08] |  |  | 98 | 7 | 33 | 
39 | COc1ccc(S(=O)(=O)N(CC(=O)Nc2ccccc2SC)c2ccc(Cl)cc2)cc1 [Compound 12794_B09] |  |  | 100 | 63 | 0 | 
40 | COc1ccc(N(CC(=O)Nc2ccccc2SC)S(=O)(=O)c2ccc(F)cc2)cc1 [Compound 12794_H03] |  |  | 100 | 77 | 47 | 
41 | COc1ccc(N(CC(=O)Nc2ccccc2-c2ccccc2)S(=O)(=O)c2ccc(F)cc2)cc1 [Compound 12838_B07] |  |  | 99 | 77 | 46 | 
42 | COC(=O)c1ccccc1NC(=O)CN(c1ccc(C)cc1)S(=O)(=O)c1ccccc1 [Compound 30636_C03] |  |  | 87 | 42 | 26 | 
43 | O=C(CN(c1ccccc1F)S(=O)(=O)c1ccccc1)Nc1cccc(C(F)(F)F)c1 [Compound 30656_D10] |  |  | 31 | 59 | 87 | 
44 | Cl.N [NH4Cl, ammonium chloride] |  |  |  |  |  | reduction of HIV/HA virus infection (HIV/HA pseudotype virus): significantly reduced the virus infection
45 | CO/C1=C\C(C)=C\[C@@H](C)[C@@H](O)[C@@H](C)C/C(C)=C/C=C/[C@H](OC)[C@@H]([C@@H](C)[C@@H](O)[C@H](C)[C@@]2(O)C[C@@H](O)[C@H](C)[C@@H](C(C)C)O2)OC1=O [bafilomycin A] |  |  |  |  |  | inhibition of infectivity of influenza virus infection [5]: efficiently inhibited the infectivity; inhibition of infectivity of HIV/HA pseudotype virus (HIV/HA pseudotype virus): efficiently inhibited the infectivity; also recorded: prevented HIV/HA infection
